The source of these data is patent US10201552B2, “Method of increasing the bioavailability of an HIV drug” (HOWARD UNIVERSITY, priority 2013, dated 2019).

SMILES strings stand for the structures.

For orientation: bioavailability means the share of a dose that reaches the circulation, judged against a reference dose that is usually intravenous.

In series [1] the test system is Unactivated Human T-Cells. As to the kind of experiment: Uptake of radio labeled Tenofovir in human T-cells in presence and absence of ABC efflux pump inhibitors. The class given is cell-based. To be noted: with specific MRP, BCRP and Pgp inhibitors vs without. On the procedure:
ABC efflux pump inhibitors. Briefly, human T-cells in the culture media (1 million/mL) were transferred to 15 mL centrifuge tubes. Radio labeled Tenofovir was added to the control tube and radio labeled Tenofovir along with defined concentrations of efflux pump inhibitors were added to the treatment tubes. The tubes were incubated for 15 minutes under culture conditions (37° C., 5% CO2/95% relative humidity). Following incubation, the tubes were centrifuged at 2000 rpm for 15 min and the supernatant is discarded. Ice cold stop solution (210 mM KCl, 2 mM HEPES [pH 7.4]) was added to stop the reaction. The cells were resuspended in stop solution to ensure washing and centrifuged at 2000 rpm for 15 min. The treatment with stop solution, washing and centrifugation is repeated to ensure through washing. 1 mL lysis solution (0.3 M NaOH, 0.1% Triton X-100) was added to the cell pellet and samples and incubated overnight to ensure complete cell lysis. Intracellular concentrations were analyzed by Beckman LS 6500 automated Scintillation Counter.

For series [2] the following is noted: administered orally as disoproxil ester prodrug; cited from earlier work.

In the case of `C[C@H](Cn1cnc2c(N)ncnc21)OCP(=O)(O)O` [Tenofovir], the “intracellular accumulation of Tenofovir” value in series [1] is “significant increase”. For the same compound, the bioavailability in series [2] was not below 20%.
